Measured values reported in the RepoRT retention time repository (doi:10.1021/es4044374).

experiment: RP, Waters XBridge C18, 50 × 2.1 mm, 3.5 µm, 30 °C, 0.2 mL/min, estimated dead time 0.55 min; A: water + 0.1% formic acid, pH 3; B: methanol + 0.1% formic acid, pH 3; gradient (min/%B) 0/10 4/50 17/95 25/95 25.1/10 30/10; settings: stereoisomer not certain

Row | SMILES | LC retention time
1 | CC(C)c1ccc(NC(=O)N(C)C)cc1 [Isoproturon] | 8.7 min
2 | NC(=O)c1c(Cl)cccc1Cl [2,6-Dichlorobenzamide] | 4 min
3 | O=C(O)C=C(F)C(F)(F)C(F)(F)C(F)(F)C(F)(F)C(F)(F)C(F)(F)C(F)(F)F [8:2 fluorotelomer unsaturated carboxylic acid] | 16.1 min
4 | CCc1ccc(C(=O)NN(C(=O)c2cc(C)cc(C)c2)C(C)(C)C)cc1 [Tebufenozide] | 12.4 min
5 | CCN(CC)C(=O)c1cccc(C)c1 [DEET] | 8.6 min
6 | COc1c(Cl)ccc(Cl)c1C(=O)O [Dicamba] | 7 min
7 | CCc1cccc(CC)c1N(COC)C(=O)C(=O)O [Alachlor OXA] | 7.4 min
8 | CCOC1Oc2ccc(OS(C)(=O)=O)cc2C1(C)C (stereo not given) [Ethofumesate] | 10 min
9 | Cc1cccc(C)c1N(Cn1cccn1)C(=O)CCl [Metazachlor] | 8.5 min
10 | CCC1OC(=O)CC(O)C(C)C(OC2OC(C)C(OC3CC(C)(O)C(O)C(C)O3)C(N(C)C)C2O)C(CC=O)CC(C)C(=O)C=CC(C)=CC1COC1OC(C)C(O)C(OC)C1OC (stereo not given) [Tylosin] | 8.1 min
11 | CC1(C)C(=O)Oc2ccc(OS(C)(=O)=O)cc21 [Ethofumesate-2-keto] | 6 min
12 | CCc1cccc(C)c1N(C(=O)CCl)C(C)COC (stereo not given) [Metolachlor] | 11.8 min
13 | CNC(C)Cc1ccccc1 (stereo not given) [Methamphetamine] | 3.7 min
14 | O=S(=O)(O)c1ccc2ccc(S(=O)(=O)O)cc2c1 [2,7-Naphthalenedisulfonic acid] | 1.2 min
15 | O=P1(N(CCCl)CCCl)NCCCO1 (stereo not given) [Cyclophosphamide] | 6.3 min
16 | CCCC1CC(C(=O)NC(C(C)Cl)C2OC(SC)C(O)C(O)C2O)N(C)C1 (stereo not given) [Clindamycin] | 6.7 min
17 | Cc1ccc(C(C)NC(=O)C(NC(=O)OC(C)C)C(C)C)cc1 (stereo not given) [Iprovalicarb] | 11.4 min
18 | COc1cc(OC)nc(NC(=O)NS(=O)(=O)c2cc(NC=O)ccc2C(=O)N(C)C)n1 [Foramsulfuron] | 7.8 min
19 | CC(Oc1ccc(Oc2ccc(C(F)(F)F)cn2)cc1)C(=O)O (stereo not given) [Fluazifop] | 10.9 min
20 | O=C(O)C(F)(F)C(F)(F)C(F)(F)C(F)(F)F [Perfluoropentanoic acid] | 7.3 min
21 | O=P(O)(OCCC(F)(F)C(F)(F)C(F)(F)C(F)(F)C(F)(F)C(F)(F)C(F)(F)C(F)(F)F)OCCC(F)(F)C(F)(F)C(F)(F)C(F)(F)C(F)(F)C(F)(F)C(F)(F)C(F)(F)F [Bisperfluorodecyl phosphate] | 20.4 min
22 | CC(Cc1ccc(C(C)(C)C)cc1)CN1CCCCC1 (stereo not given) [Fenpropidin] | 9.5 min

Row | SMILES | LC retention time
23 | COC(=O)C(Cc1ccccc1)NC(=O)C(CC(=O)O)NCCC(C)(C)C (stereo not given) [Neotame] | 9 min
24 | CC(N)Cc1ccccc1 (stereo not given) [Amphetamine] | 3.5 min
25 | CC(C)=NOCCOC(=O)C(C)Oc1ccc(Oc2cnc3cc(Cl)ccc3n2)cc1 (stereo not given) [Propaquizafop] | 15 min
26 | COc1cc(Cc2cnc(N)nc2N)cc(OC)c1OC [Trimethoprim] | 3.8 min
27 | Cc1cc(=O)n(-c2ccccc2)n1C [Antipyrine] | 4.6 min
28 | CCNC(=O)NC(=O)C(C#N)=NOC [Cymoxanil] | 5.6 min
29 | CNC(=O)Oc1cc(C)c(S(C)=O)c(C)c1 (stereo not given) [Methiocarb-sulfoxide] | 4.9 min
30 | Cc1cccc(Nc2ccccc2C(=O)O)c1C [Mefenamic acid] | 14.5 min
31 | CC(=O)SC1CC2=CC(=O)CCC2(C)C2CCC3(C)C(CCC34CCC(=O)O4)C12 (stereo not given) [Spironolactone] | 10.2 min
32 | CCNc1nc(Cl)nc(NC(C)(C)C#N)n1 [Cyanazine] | 6.6 min
33 | COC(=O)C(Cc1ccccc1)NC(=O)C(N)CC(=O)O (stereo not given) [Aspartame] | 4.8 min
34 | CCNC(=O)C(C)OC(=O)Nc1ccccc1 (stereo not given) [Carbetamide] | 6.6 min
35 | COC=C(C(=O)O)c1ccccc1Oc1cc(Oc2ccccc2C#N)ncn1 [Azoxystrobin (free acid)] | 8.8 min
36 | CC(C)(Oc1ccc(Cl)cc1)C(=O)O [Clofibric acid] | 10 min
37 | Cc1cc(C)nc(NS(=O)(=O)c2ccc(N)cc2)n1 [Sulfamethazine] | 3.9 min
38 | Nc1nc2ccccc2[nH]1 [2-Aminobenzimidazole] | 2.7 min
39 | CC(C)(C)Nc1nc(N)[nH]c(=O)n1 [Terbutylazine-desethyl-2-hydroxy] | 2.9 min
40 | Cc1nnc(-c2ccccc2)c(=O)n1N [Metamitron] | 4.9 min
41 | CN1C(=O)CN=C(c2ccccc2)c2cc(Cl)ccc21 [Diazepam] | 10.1 min
42 | Cc1ccc(N=CN(C)C=Nc2ccc(C)cc2C)c(C)c1 [Amitraz] | 15.4 min
43 | O=C(O)C(F)(F)C(F)(F)C(F)(F)C(F)(F)C(F)(F)C(F)(F)F [Perfluoroheptanoic acid] | 11.1 min
44 | O=C(O)C(F)(F)C(F)(F)C(F)(F)C(F)(F)C(F)(F)C(F)(F)C(F)(F)C(F)(F)F [Perfluorononanoic acid] | 13.9 min

Row | SMILES | LC retention time
45 | CCNS(=O)(=O)C(F)(F)C(F)(F)C(F)(F)C(F)(F)C(F)(F)C(F)(F)C(F)(F)C(F)(F)F [N-Ethylperfluoroctansulfonamid (N-EtFOSA)] | 17.1 min
46 | CCNc1nc(NC(C)C)nc(OC)n1 [Atraton] | 5.7 min
47 | Cc1c(NC=O)c(=O)n(-c2ccccc2)n1C [4-Formylaminoantipyrine] | 3.7 min
48 | CC(O)(CS(=O)(=O)c1ccc(F)cc1)C(=O)Nc1ccc(C#N)c(C(F)(F)F)c1 (stereo not given) [Bicalutamide] | 9.9 min
49 | CCCN(CCOc1c(Cl)cc(Cl)cc1Cl)C(=O)n1ccnc1 [Prochloraz] | 12.2 min
50 | COCCN(C(=O)CS(=O)(=O)O)c1c(C)cccc1C [Dimethachlor ESA] | 5.9 min
51 | N#CCNC(=O)c1cnccc1C(F)(F)F [Flonicamid] | 3.9 min
52 | CCc1cccc(CC)c1N(COC)C(=O)CS(=O)(=O)O [Alachlor ESA] | 7.7 min
53 | CON(C)C(=O)Nc1ccc(Cl)c(Cl)c1 [Linuron] | 10 min
54 | N#CN=C1SCCN1Cc1ccc(Cl)nc1 [Thiacloprid] | 5.8 min
55 | Oc1ccc(C(F)(F)F)cc1 [4-Trifluoromethylphenol] | 8.9 min
56 | Fc1ccc(C2(Cn3cncn3)OC2c2ccccc2Cl)cc1 (stereo not given) [Epoxiconazole] | 11.7 min
57 | CCNc1nc(Cl)nc(NCC)n1 [Simazine] | 6.9 min
58 | NC(=O)Nc1ccc(Cl)c(Cl)c1 [Diuron-desdimethyl] | 8.3 min
59 | CCC(C)C(=O)OC1CC(O)C=C2C=CC(C)C(CCC(O)CC(O)CC(=O)O)C21 (stereo not given) [Pravastatin] | 9.2 min
60 | CSc1nc(N)nc(NC(C)(C)C)n1 [Irgarol-descyclopropyl] | 6.7 min
61 | CN(C)CC(c1ccc(O)cc1)C1(O)CCCCC1 (stereo not given) [O-desmethylvenlafaxine] | 4.8 min
62 | CCNc1nc(NC(C)(C)C)nc(SC)n1 [Terbutryn] | 8.5 min
63 | C[Si](Cn1cncn1)(c1ccc(F)cc1)c1ccc(F)cc1 [Flusilazole] | 12.4 min
64 | CCOCCN(C(=O)CCl)C(=C(C)C)c1ccccc1 [Pethoxamide] | 11.5 min
65 | Nc1ccc(S(=O)(=O)Nc2ncccn2)cc1 [Sulfadiazine] | 2.2 min
66 | O=[N+]([O-])/N=C1\NCCN1Cc1ccc(Cl)nc1 [Imidacloprid] | 4.8 min

Row | SMILES | LC retention time
67 | CCNc1nc(N)nc(Cl)n1 [Atrazine-desisopropyl] | 4.3 min
68 | O=C(O)C(F)(F)C(F)(F)C(F)(F)C(F)(F)C(F)(F)C(F)(F)C(F)(F)C(F)(F)C(F)(F)F [Perfluorodecanoic acid] | 15.2 min
69 | CC=C1N(C)C(C)CC1(c1ccccc1)c1ccccc1 (stereo not given) [EDDP] | 6.5 min
70 | CCn1cc(C(=O)O)c(=O)c2cc(F)c(N3CCNCC3)cc21 [Norfloxacin] | 4.4 min
71 | CC(Cc1ccc(C(C)(C)C)cc1)CN1CC(C)OC(C)C1 (stereo not given) [Fenpropimorph] | 9.4 min
72 | CS(=O)(=O)c1ccc(C(=O)C2C(=O)CCCC2=O)c([N+](=O)[O-])c1 [Mesotrione] | 6.2 min
73 | CNC(=O)ON=C(C)SC [Methomyl] | 3.6 min
74 | COCCN(C(=O)C(=O)O)c1c(C)cccc1C [Dimethachlor OXA] | 6.6 min
75 | N#Cc1nn(-c2c(Cl)cc(C(F)(F)F)cc2Cl)c(N)c1S(=O)C(F)(F)F (stereo not given) [Fipronil] | 12.6 min
76 | COc1ccc(CCC(=O)c2c(O)cc(OC3OC(CO)C(O)C(O)C3OC3OC(C)C(O)C(O)C3O)cc2O)cc1O (stereo not given) [Neohesperidin dihydrochalcone] | 7.2 min
77 | OCc1cccc(Oc2ccccc2)c1 [3-Phenoxybenzylalcohol] | 9.8 min
78 | NS(=O)(=O)c1cc2c(cc1Cl)NCNS2(=O)=O [Hydrochlorothiazide] | 2.2 min
79 | CCOC(=O)C1=CC(OC(CC)CC)C(NC(C)=O)C(N)C1 (stereo not given) [Oseltamivir] | 7 min
80 | CC(C)N(C(=O)C(=O)O)c1ccc(F)cc1 [Flufenacet OXA] | 6.2 min
81 | Cn1sc(Cl)cc1=O [5-Chloro-2-methyl-4-isothiazolin-3-one (CMI)] | 3.7 min
82 | Cc1cccc(C)c1N(Cn1cccn1)C(=O)C(=O)O [Metazachlor OXA] | 5.5 min
83 | CN1CCC23c4c5ccc(O)c4OC2C(O)C=CC3C1C5 (stereo not given) [Morphine] | 1.1 min
84 | Cc1c(N(C)C)c(=O)n(-c2ccccc2)n1C [Aminopyrine] | 2.6 min
85 | CON=C(C(=O)OC)c1ccccc1COc1ccccc1C [Kresoxim-methyl] | 12.5 min
